{"source": "patent US9260395B2", "about": "“Inhibitors of viral replication, their process of preparation and their therapeutical uses” (priority 2012, dated 2016)", "data": [{"system": "NL4-3 strain of HIV-1", "test": "Cyto-protection (CellTiter-Glo viability) assay of MT4 cells infected with NL4-3 virus; inhibition of HIV replication", "assay_type": "cell-based", "details": "Human immunodeficiency virus 1, NL43, 120 h; concentration leading to 50% of cyto-protection; MT4 cells infected with NL4-3 virus; 5 days incubation; CellTiter-Glo; read-out: EC50", "method": "Preparation of Virus stock of the NL4-3 strain of HIV-1 (Adachi et al, J Virol, 1986, 59(2):284-91).\nThe virus was prepared as described in Lopez et al (Lopez et al, Proc Natl Acad Sci USA., 2006, 103(40):14947-52, by transfecting 2×10^6 293 T cells (CRL-1573, ATCC) with following modifications: 6 μg of NL4-3 proviral DNA molecular clone were mixed with Fugene 6 transfection reagent from Roche, and used according to manufacturer's instructions. Forty eight hours later, transfected cell supernatants were harvested, filtered through 0.45-μm-pore-size filters, quantified for HIV-1 p24 antigen by using a Innotest HIV antigen mAb assay (Ingen) according to manufacturer's instructions, and used in infection experiments.\nSerial dilutions of compounds to be tested were prepared in complete RPMI medium from 10 mM DMSO stock solutions, and I in 96 well Falcon 353072 Microtest[…]distributed in a volume of 20™ tissue culture plate, in order to get 0.5% DMSO final concentration in each well, after the addition of infected cells. Control wells contained also 0.5% DMSO final concentration but no compound.\nMT4 cells (from the NIH AIDS Research and Reference Reagent Program) in RPMI complete medium were counted (10×10^6 cells per well in Falcon 353047 Multiwell™ 24 well) and infected for 2 hours at 37°, at a multiplicity of infection (moi) of 0.0001-0.00001. Cells were then centrifuged 3 min at 3000 rpm, and washed two times in 1 ml PBS to remove viruses that have not entered in cells. Infected cells were resuspended in complete RPMI at 1.25×10^6 cells/ml and 80 μl of infected cells were distributed in each well containing compound to be tested or control wells. The plates were then incubated at 37° for 5 days.\nAssay used to measure the inhibition of HIV replication by the compounds (according to Gregg S. Jones et al., Antimicrobial Agents and Chemotherapy, 2009, 53 (3): 1194-1203).\nAfter 5 days of incubation, microplates were equilibrated to room temperature for 30 mn and then 50 μl of CellTiter-Glo reagent (Promega Biosciences, Inc., Madison Wis., USA) were added to each well. Cell lysis was carried out at room temperature during 10 min, 150μl of lysates were transferred in Packard Optiplate 96 well, and luminescence was read on a Fluoroskan (Thermo Scientific).\nThe EC50, or effective concentration 50, is the concentration of compound leading to 50% of cyto-protection in a Cell-Titer-Glo® viability assay based on MT4 cells infected with NL4-3 virus (table 1).", "units": {"EC50": "nM"}, "values": [{"smiles": "CC1CCCC=C1c1nn(C)c(C(OC(C)(C)C)C(=O)O)c1-c1ccc2c(c1)CCCO2", "note": "(centres unmarked) [Example 18, 2-(tert-butoxy)-2-[4-(3,4-dihydro-2H-1-benzopyran-6-yl)-1-methyl-3-(6-methylcyclohex-1-en-1-yl)-1H-pyrazol-5-yl]acetic acid]", "EC50": 500}, {"smiles": "Cn1nc(-c2ccc(Cl)s2)c(-c2ccc3c(c2)CCCO3)c1C(OC(C)(C)C)C(=O)O", "note": "(centres unmarked) [Example 36, 2-(tert-butoxy)-2-[3-(5-chlorothiophen-2-yl)-4-(3,4-dihydro-2H-1-benzopyran-6-yl)-1-methyl-1H-pyrazol-5-yl]acetic acid]", "EC50": 2700}, {"smiles": "Cn1nc(C2=CCCCCC2)c(-c2ccc3c(c2)CCCO3)c1C(OC(C)(C)C)C(=O)O", "note": "(centres unmarked) [Example 16, 2-(tert-butoxy)-2-[3-(cyclohept-1-en-1-yl)-4-(3,4-dihydro-2H-1-benzopyran-6-yl)-1-methyl-1H-pyrazol-5-yl]acetic acid]", "EC50": 870}, {"smiles": "Cn1nc(C2=CCC(C)(C)CC2)c(-c2ccc3c(c2)CCCO3)c1C(OC(C)(C)C)C(=O)O", "note": "(centres unmarked) [Example 14, 2-(tert-butoxy)-2-[4-(3,4-dihydro-2H-1-benzopyran-6-yl)-3-(4,4-dimethylcyclohex-1-en-1-yl)-1-methyl-1H-pyrazol-5-yl]acetic acid]", "EC50": 1700}, {"smiles": "CC(C)(C)OC(C(=O)O)c1c(-c2ccc3c(c2)CCCO3)c(-c2cccs2)nn1CC(F)(F)F", "note": "(centres unmarked) [Example 34, 2-(tert-butoxy)-2-[4-(3,4-dihydro-2H-1-benzopyran-6-yl)-3-(thiophen-2-yl)-1-(2,2,2-trifluoroethyl)-1H-pyrazol-5-yl]acetic acid]", "EC50": 3500}, {"smiles": "Cn1nc(-c2ccncc2)c(-c2ccc3c(c2)CCCO3)c1C(OC(C)(C)C)C(=O)O", "note": "(centres unmarked) [Example 40, 2-(tert-butoxy)-2-[4-(3,4-dihydro-2H-1-benzopyran-6-yl)-1-methyl-3-(pyridin-4-yl)-1H-pyrazol-5-yl]acetic acid]", "EC50": 6000}, {"smiles": "Cn1nc(-c2nccs2)c(-c2ccc3c(c2)CCCO3)c1C(OC(C)(C)C)C(=O)O", "note": "(centres unmarked) [Example 8, 2-(tert-butoxy)-2-[4-(3,4-dihydro-2H-1-benzopyran-6-yl)-1-methyl-3-(1,3-thiazol-2-yl)-1H-pyrazol-5-yl]acetic acid]", "EC50": 3700}, {"smiles": "Cn1nc(C2=CC(O)CCC2)c(-c2ccc3c(c2)CCCO3)c1C(OC(C)(C)C)C(=O)O", "note": "(centres unmarked) [Example 43, 2-(tert-butoxy)-2-[4-(3,4-dihydro-2H-1-benzopyran-6-yl)-3-(3-hydroxycyclohex-1-en-1-yl)-1-methyl-1H-pyrazol-5-yl]acetic acid]", "EC50": 9200}, {"smiles": "Cc1c(-c2c(-c3cccs3)nn(C)c2C(OC(C)(C)C)C(=O)O)ccc2c1CCCO2", "note": "(centres unmarked) [Example 7, 2-(tert-butoxy)-2-[1-methyl-4-(5-methyl-3,4-dihydro-2H-1-benzopyran-6-yl)-3-(thiophen-2-yl)-1H-pyrazol-5-yl]acetic acid]", "EC50": 410}, {"smiles": "C=C(c1nn(C)c(C(OC(C)(C)C)C(=O)O)c1-c1ccc2c(c1)CCCO2)C1CCCC1", "note": "(centres unmarked) [Example 23, 2-(tert-butoxy)-2-[3-(1-cyclopentylethenyl)-4-(3,4-dihydro-2H-1-benzopyran-6-yl)-1-methyl-1H-pyrazol-5-yl]acetic acid]", "EC50": 2000}, {"smiles": "Cn1nc(-c2ccccn2)c(-c2ccc3c(c2)CCCO3)c1C(OC(C)(C)C)C(=O)O", "note": "(centres unmarked) [Example 9, 2-(tert-butoxy)-2-[4-(3,4-dihydro-2H-1-benzopyran-6-yl)-1-methyl-3-(pyridin-2-yl)-1H-pyrazol-5-yl]acetic acid]", "EC50": 3700}]}]}
